We go through two compounds from patent publication US5023271A, “Pharmaceutical microemulsions” (priority 1985, dated 1991).

For data set [1], the system named is lipoprotein components of human serum. Put plainly: In vitro transfer of tocopherol from microemulsion to human serum lipoproteins (sodium chloride gradient). The following applies: 100 μl microemulsion of Example 1 + 900 μl saline, 1 hr, 37°. How it is done: The diffusion of tocopherol in the mixtures was compared with the distribution of lipoproteins in the same mixtures and with the distribution of tocopherol from the untreated emulsion.
For a control, 100 μl of the microemulsion were incubated with 900 μl of saline solution under the same conditions. Each mixture was underlayered in a sodium chloride gradient and separated by ultracentrifugation according to Foreman, et al, J Lipid Research (1977) 18:759-767. The fractions of various densities were collected and each fraction was assayed for the content of tocopherol, tocopherol acetate, and cholesterol. The microemulsion alone mixed with saline gives a single peak for tocopherol at a density of approximately 1.018 g/ml. […] The treatment of microemulsion with serum effects the transfer of the tocopherol to serum in conjunction with the lipoprotein content thereof.

The test system of another data set is lipoprotein fractions. Put plainly: Distribution of injected α-tocopherol and tocopherol acetate among serum lipoprotein fractions of rabbits. How it is done:
The serum samples were also layered under a sodium chloride gradient and centrifuged. The distribution of the injected α-tocopherol and tocopherol acetate among the lipoprotein fractions was assessed.

For data set [2] the following is noted: cited from earlier work.
A further data set is described as follows: in vivo. The following applies: rabbit, iv, 15 mL/animal.
Data set [3] can be described thus: Serum and liver extract levels in rats after IV injection. As to conditions: 1 ml preparation of Example 1 IV.
Experimental: The animals were sacrificed at 15 minute intervals for the first hour, after two hours, and then after 1, 3, 5, and 10 days. The levels of α-tocopherol and tocopherol acetate were assayed in the sera and liver extracts.
Data set [4] in a line: Long term daily injection to rabbits, serum samples at 1 week intervals. As to conditions: 1 ml preparation of Example 1 daily for 30 days.
Experimental: New Zealand male rabbits were injected daily with 1 ml doses of the preparation of Example 1 for 30 days.
A short description of data set [5]: Short term serum and tissue levels after intravenous injection to rabbits.
Text: (§1) The rabbits were then sacrificed and the tissues analyzed for their content of tocopherol and tocopherol acetate.

Text for in vivo: as §1

Regarding `Cc1c(C)c2c(c(C)c1O)CCC(C)(CCCC(C)CCCC(C)CCCC(C)C)O2` (racemic) [α-tocopherol], the “density of the tocopherol peak, microemulsion mixed with saline (control)” value in data set [1] was “approximately 1.018 g/ml”. Besides, the “distribution among lipoprotein fractions after injection” value in the data set on lipoprotein fractions (rabbit, in vivo, iv) is given as “transferred, apparently to the LDL fraction, in exchange for cholesterol”. Also, in data set [2] (in vivo, po), the “adverse outcome of oral administration” value is recorded as “gastrointestinal problems”. The “adverse outcome of intravenous administration” value in data set [2] (intravenous, premature infants) was “implicated in several neonatal deaths”.

Take `CC(=O)Oc1c(C)c(C)c2c(c1C)CCC(C)(CCC[C@H](C)CCC[C@H](C)CCCC(C)C)O2` (stereo partly drawn) [tocopherol acetate, α-tocopherol (dl) acetate]: the “distribution among lipoprotein fractions after injection” value in the data set with lipoprotein fractions (preparation of Example 1 i.v., serum samples on sodium chloride gradient) is given as “remained mainly at the density of the microemulsion alone”. For the same compound, the concentration at 5 min in “in vivo” was 280 µg/mL. In addition, the “hydrolysis of tocopherol acetate in liver” value in data set [3] is on record as “completely hydrolyzed after approximately two hours”. Besides, the serum tocopherol acetate entry in data set [4] was “No tocopherol acetate was detectable”. Moreover, in data set [5] (15 ml preparation of Example 1 i.v., 4 hr), the “α-tocopherol acetate in circulation by the end of 4 hr” value is on record as “finally disappearing from the circulation by the end of the 4 hr period”. In addition, the “α-tocopherol acetate in liver, spleen, and other tissues” value in data set [5] (after 4 hr) was “no α-tocopherol acetate could be detected”.
